Results from US5688787A, “Substituted β-lactam compounds useful as hypochlesterolemic agents and processes for the preparation thereof” (priority 1996, dated 1997).
Where two headings read alike, the source gives them in different places.

Assays:
ACAT = target: T1, ACAT (Rattus norvegicus, UniProt Q7TQM4); experiment: ACAT Assay (in vitro); assay type: biochemical; conditions: for inhibition at 10 µM: Conc. 10 µM
T1 construct: Rat liver microsomes are used as the source of ACAT; from tissue; host or cells: rat liver microsomes
T1 sequence (Q7TQM4 1-524): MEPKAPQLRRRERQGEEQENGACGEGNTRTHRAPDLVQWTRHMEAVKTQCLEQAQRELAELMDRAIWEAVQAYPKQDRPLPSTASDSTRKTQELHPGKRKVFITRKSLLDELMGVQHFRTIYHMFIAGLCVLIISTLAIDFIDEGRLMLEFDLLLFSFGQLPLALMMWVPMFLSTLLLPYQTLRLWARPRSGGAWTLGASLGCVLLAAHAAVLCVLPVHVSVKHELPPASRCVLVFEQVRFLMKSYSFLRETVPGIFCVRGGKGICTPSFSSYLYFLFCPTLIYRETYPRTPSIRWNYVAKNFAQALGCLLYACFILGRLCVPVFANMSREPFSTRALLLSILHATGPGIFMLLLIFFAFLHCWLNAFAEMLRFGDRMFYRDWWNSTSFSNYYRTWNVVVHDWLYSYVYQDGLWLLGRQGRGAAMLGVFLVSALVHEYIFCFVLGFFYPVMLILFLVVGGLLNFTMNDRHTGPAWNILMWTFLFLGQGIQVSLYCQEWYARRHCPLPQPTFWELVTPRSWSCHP

Hyperlipidemic Hamster = experiment: In Vivo Assay of Hypolipidemic Agents Using the Hyperlipidemic Hamster; conditions: 7 days, percent change versus control, negative = lowering; for change in vivo at 50 mg/kg / change in vivo at 100 mg/kg / change in vivo at 5 mg/kg / change in vivo at 10 mg/kg / change in vivo at 1 mg/kg / change in vivo at 3 mg/kg: Mesocricetus auratus, po, 168 h; for change in vivo at 100 mg/kg: 100 mg/kg once daily oral; for change in vivo at 5 mg/kg: 5 mg/kg once daily oral; for change in vivo at 10 mg/kg: 10 mg/kg once daily oral; for change in vivo at 1 mg/kg: 1 mg/kg once daily oral; for change in vivo at 3 mg/kg: 3 mg/kg once daily oral
In short: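 Hamsters, six per group, were fed chow with 0.5% cholesterol for seven days and given compound once daily by oral gavage in corn oil; controls received corn oil alone. Plasma (EDTA) and liver lipids were measured at sacrifice. Values are percent change versus control, so negative means lowering.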

[1] = negative = apparent stimulation, read-out: ACAT (in vitro) % Inhib.
[2] = 50 mg/kg once daily oral, read-out: % Reduction (in vivo) Cholest. Esters
[3] = 50 mg/kg once daily oral, read-out: % Reduction (in vivo) Serum Cholest.
[4] = read-out: % Reduction (in vivo) Cholest. Esters
[5] = read-out: % Reduction (in vivo) Serum Cholest.
[6] = rat liver microsomes, read-out: ACAT (in vitro) IC50

| SMILES | inhibition at 10 µM (ACAT; [1]) [%] | change in vivo at 50 mg/kg (Hyperlipidemic Hamster; [2]) [%] | change in vivo at 50 mg/kg (Hyperlipidemic Hamster; [3]) [%] | also measured |
| --- | --- | --- | --- | --- |
| CC[C@H]1C(=O)N(c2c(OC)cc(OC)cc2OC)[C@H]1c1ccccc1 (relative stereo) [Example 1AE] | -7 |  |  |  |
| CC[C@H]1C(=O)N(c2ccc(OC)cc2)[C@H]1C=Cc1ccccc1 (relative stereo) [Example 1AF] | 0 |  |  |  |
| CC[C@@H]1C(=O)N(c2ccc(OC)cc2)[C@H]1C=Cc1ccccc1 (relative stereo) [Example 1AG] | -3 | -29 | -16 |  |
| CC[C@@H]1C(=O)N(c2ccc(OC)cc2)[C@H]1c1ccc([N+](=O)[O-])cc1 (relative stereo) [Example 1AJ] | -17 | 0 | 0 |  |
| CC[C@H]1C(=O)N(c2ccc(OC)cc2)[C@H]1c1ccc([N+](=O)[O-])cc1 (relative stereo) [Example 1AK] | -33 |  |  |  |
| CC[C@@H]1C(=O)N(c2ccc(OC)cc2)[C@@H]1c1ccc(OC)cc1 (relative stereo) [Example 1AL] | -43 | 0 | 0 |  |
| COc1ccc(N2C(=O)[C@H](CCCc3ccccc3)[C@H]2c2ccc(CO[Si](C)(C)C(C)(C)C)cc2)cc1 (relative stereo) [Example 1AS] | 83 | -19 | 0 | IC50 (ACAT): 1 µM |
| COc1ccc(N2C(=O)[C@H](CCCc3ccccc3)[C@@H]2c2ccc(CO[Si](C)(C)C(C)(C)C)cc2)cc1 (relative stereo) [Example 1AT] | 70 | -28 | 0 | IC50 (ACAT): 5 µM |
| COc1ccc(N2C(=O)[C@](C(=O)Cc3ccccc3)(c3ccccc3)[C@@H]2c2ccccc2)cc1 (relative stereo) [Example 1A] |  |  |  | inhibition at 25 µM (ACAT; Conc. 25 µM, negative = apparent stimulation, read-out: ACAT (in vitro) % Inhib.): 83%; change in vivo at 100 mg/kg (Hyperlipidemic Hamster; [4]): -26%; change in vivo at 100 mg/kg (Hyperlipidemic Hamster; [5]): -10% |
| COc1ccc(N2C(=O)[C@H](CCCc3ccccc3)[C@@H]2c2ccc(OC)c(OC)c2)cc1 (relative stereo) [Example 1BB] | -16 | 0 | 0 |  |
| CC[C@@]1(CCCc2ccccc2)C(=O)N(c2c(OC)cc(OC)cc2OC)[C@H]1C=Cc1ccccc1 (relative stereo) [Example 1I] | 81 |  |  | IC50 (ACAT; [6]): 4.5 µM |
| CC[C@]1(CCCc2ccccc2)C(=O)N(c2c(OC)cc(OC)cc2OC)[C@H]1C=Cc1ccccc1 (relative stereo) [Example 1J] | 86 |  |  | IC50 (ACAT; [6]): 3 µM |
| CCCCCCCCCC[C@@]1(CC)C(=O)N(c2ccc(OC)cc2)[C@@H]1c1ccccc1 (stereo in doubt) [Example 3T] | -9 |  |  |  |
| COc1ccc(C2C(CCCc3ccccc3)C(=O)N2c2ccc(OC)cc2)cc1 (centres unmarked) [Example 1] |  | -95 | -45 | change in vivo at 5 mg/kg (Hyperlipidemic Hamster; [4]): 0%; change in vivo at 5 mg/kg (Hyperlipidemic Hamster; [5]): 0%; change in vivo at 10 mg/kg (Hyperlipidemic Hamster; [4]): -55%; change in vivo at 10 mg/kg (Hyperlipidemic Hamster; [5]): -17% |
| COc1ccc([C@H]2[C@@H](CCCc3ccccc3)C(=O)N2c2ccc(OC)cc2)cc1 [Example 2A] |  | 0 | 0 |  |
| COc1ccc([C@@H]2[C@H](CCCc3ccccc3)C(=O)N2c2ccc(OC)cc2)cc1 [Example 2] |  |  |  | change in vivo at 5 mg/kg (Hyperlipidemic Hamster; [4]): -37%; change in vivo at 5 mg/kg (Hyperlipidemic Hamster; [5]): -15%; change in vivo at 10 mg/kg (Hyperlipidemic Hamster; [4]): -69%; change in vivo at 10 mg/kg (Hyperlipidemic Hamster; [5]): -28% |
| COc1ccc(C2C(CCCc3ccccc3)C(=O)N2c2ccc(Oc3ccccc3)cc2)cc1 (centres unmarked) [Example 5K] |  | -49 | -28 |  |
| COc1ccc([C@@H]2[C@@H](CCCc3ccccc3)C(=O)N2c2ccccc2)cc1 [Example 5L] |  |  |  | change in vivo at 1 mg/kg (Hyperlipidemic Hamster; [4]): -64%; change in vivo at 1 mg/kg (Hyperlipidemic Hamster; [5]): -54%; change in vivo at 3 mg/kg (Hyperlipidemic Hamster; [4]): -84%; change in vivo at 3 mg/kg (Hyperlipidemic Hamster; [5]): -39%; change in vivo at 10 mg/kg (Hyperlipidemic Hamster; [4]): -95%; change in vivo at 10 mg/kg (Hyperlipidemic Hamster; [5]): -50% |
| COc1ccc([C@H]2[C@H](CCCc3ccccc3)C(=O)N2c2ccccc2)cc1 [Example 5M] |  | -50 | -20 | change in vivo at 3 mg/kg (Hyperlipidemic Hamster; [4]): 0%; change in vivo at 3 mg/kg (Hyperlipidemic Hamster; [5]): -12%; change in vivo at 10 mg/kg (Hyperlipidemic Hamster; [4]): -36%; change in vivo at 10 mg/kg (Hyperlipidemic Hamster; [5]): -8% |
| COc1ccc([C@@H]2[C@@H](CCCc3ccccc3)C(=O)N2c2ccc(OC)cc2)cc1 [Example 9, (3R,4S)-1,4-bis-(4-methoxyphenyl)-3-(3-phenylpropyl)-2-azetidinone] |  |  |  | change in vivo at 3 mg/kg (Hyperlipidemic Hamster; [4]): -68%; change in vivo at 3 mg/kg (Hyperlipidemic Hamster; [5]): -25%; change in vivo at 5 mg/kg (Hyperlipidemic Hamster; [4]): -66%; change in vivo at 5 mg/kg (Hyperlipidemic Hamster; [5]): -21.5%; change in vivo at 10 mg/kg (Hyperlipidemic Hamster; [4]): -93%; change in vivo at 10 mg/kg (Hyperlipidemic Hamster; [5]): -43% |
| COc1ccc(N2C(=O)C(CCCc3ccccc3)C2c2ccc(C3OCCO3)cc2)cc1 (centres unmarked) [Example 31A] |  |  |  | % Reduction (in vivo) Cholest. Esters (Hyperlipidemic Hamster; 50 mg/kg once daily oral): 0%; % Reduction (in vivo) Serum Cholest. (Hyperlipidemic Hamster; 50 mg/kg once daily oral): 0% |
| COC(=O)CCC(=O)Oc1ccc(C2C(CCCc3ccccc3)C(=O)N2c2ccc(OC)cc2)cc1 (centres unmarked) [Example 34] |  | -94 | -39 |  |

Now from value to compound, other results behind:

| inhibition at 10 µM (ACAT; [1]) [%] | SMILES | change in vivo at 50 mg/kg (Hyperlipidemic Hamster; [2]) [%] | change in vivo at 50 mg/kg (Hyperlipidemic Hamster; [3]) [%] | also measured |
| --- | --- | --- | --- | --- |
| -36 | CC[C@]1(c2ccccc2)C(=O)N(c2ccc(OC)cc2)[C@H]1c1ccccc1 (relative stereo) [Example 1AA] |  |  |  |
| 17 | CC[C@H]1C(=O)N(c2ccc(OC)cc2)[C@H]1c1ccccc1 (relative stereo) [Example 1AB] |  |  |  |
| -5 | CC[C@H]1C(=O)N(c2ccc(OC)cc2)[C@@H]1c1ccccc1 (relative stereo) [Example 1AD] |  |  |  |
| 4 | COc1ccc(N2C(=O)[C@@H](C)[C@H]2c2ccccc2)cc1 (relative stereo) [Example 1AH] |  |  |  |
| 27 | COc1ccc(N2C(=O)[C@@H](C)[C@@H]2c2ccccc2)cc1 (relative stereo) [Example 1AI] |  |  |  |
| -41 | COc1ccc(N2C(=O)[C@H](CCCc3ccccc3)[C@H]2c2ccncc2)cc1 (relative stereo) [Example 1AR] | -25 | -22 |  |
| 44 | COc1ccc(N2C(=O)[C@H](CCCc3ccccc3)[C@@H]2c2ccc(SC)cc2)cc1 (relative stereo) [Example 1AU] | -21 | 0 |  |
| -2 | COc1ccc(N2C(=O)[C@H](CCCc3ccccc3)[C@@H]2c2ccco2)cc1 (relative stereo) [Example 1BC] | 0 | 0 |  |
| 3 | COc1ccc(N2C(=O)[C@@H](CCc3ccccc3)[C@@H]2c2ccccc2)cc1 (relative stereo) [Example 1E] |  |  |  |
| 64 | COc1ccc(N2C(=O)[C@H](c3ccccc3)[C@H]2c2ccccc2)cc1 (relative stereo) [Example 1V] |  |  |  |
| 9 | COc1ccc(N2C(=O)[C@H](C(C)C)[C@@H]2c2ccccc2)cc1 (relative stereo) [Example 1W] |  |  |  |
| 50 | COc1ccc(N2C(=O)[C@](Cc3ccccc3)(c3ccccc3)[C@@H]2c2ccccc2)cc1 (relative stereo) [Example 1Y] |  |  |  |
| -18 | CCCCCCCCCC[C@@]1(CCCc2ccccc2)C(=O)N(c2ccc(OC)cc2)[C@@H]1c1ccccc1 (relative stereo) [Example 3C] |  |  |  |
| 16 | COc1ccc(N2C(=O)[C@H](c3ccccc3)[C@@H]2c2ccccc2)cc1 (relative stereo) [Example 4] |  |  |  |
| -70 | COc1ccc(N2C(=O)[C@@H](C(C)C)[C@@H]2c2ccccc2)cc1 (relative stereo) [Example 5A] |  |  |  |
| -12 | CC[C@@H]1C(=O)N(c2ccc(OC)cc2)[C@@H]1c1ccc(N)cc1 (relative stereo) [Example 8] |  |  |  |
